Assay results as given in US10336732B2, “1-heterocyclyl isochromanyl compounds and analogs for treating CNS disorders” (Sunovion Pharmaceuticals Inc., priority 2015, dated 2019).

tested on: mice; experiment: Neuropharmacological assay (SmartCube), behavioral signature of compound-treated mice; type: in vivo; details: i.p. 15 min before behavioral test, most efficacious dose(s) of 3 doses
Excerpt: Neurosci. […] As reported in Roberds, because psychiatric diseases generally result from disorders of cell-cell communication or circuitry, intact systems are useful in detecting improvement in disease-relevant endpoints. These endpoints are typically behavioral in nature, often requiring human observation and interpretation. To facilitate testing of multiple compounds for behavioral effects relevant to psychiatric disease, PsychoGenics, Inc. (Tarrytown, N.Y., “PGI”) developed SmartCube™, an automated system in which behaviors of compound-treated mice are captured by digital video and analyzed with computer algorithms. […] PGI Analytical Systems uses data from SmartCube™ to compare the behavioral signature of a test compound to a database of behavioral signatures obtained using a large set of diverse reference compounds. (The composition of the database as well as validation of the method is further described in Roberds). In this way, the neuropharmacological effects of a test compound can be predicted by similarity to major classes of compounds, such as antipsychotics, anxiolytics and antidepressants.
The SmartCube™ system produces an activity signature indicating the probability that the activity of the test compound at the administered dose matches a given class of neuropharmacological agents. (See, e.g., Roberds, FIGS. 2 and 3). The test compound is simultaneously compared against multiple classes of agents; thus, a separate probability is generated for each behavioral effect measured (e.g., anxiolytic activity, analgesic activity, etc.). In Table 4, these probabilities are reported for each behavioral effect measured as follows:
Provided compounds were dissolved in a mixture of Pharmasolve™ (N-methyl-2-pyrrolidone), polyethylene glycol and propylene glycol, and were injected i.p. 15 min. before the behavioral test. For each compound, injections were administered at 3 different doses. For each behavioral effect measured, results for the most efficacious dose(s) are presented.

Row | SMILES | AD: ADHD (probability that behavioral signature matches class) | AG: analgesic (probability that behavioral signature matches class) | AX: anxiolytic (probability that behavioral signature matches class) | CE: cognitive enhancer (probability that behavioral signature matches class) | DP: anti-depressant (probability that behavioral signature matches class) | HA: hallucinogen (probability that behavioral signature matches class) | MS: mood stabilizer (probability that behavioral signature matches class) | PS: anti-psychotic (probability that behavioral signature matches class) | SD: sedative hypnotic (probability that behavioral signature matches class) | UN: uncharacterized CNS activity (probability that behavioral signature matches class)
1 | Fc1cccc2c1[C@@H]([C@@H]1CCCN1)OCC2 [Compound I-2, (S)-2-((S)-8-fluoroisochroman-1-yl)pyrrolidine] | + (LOQ ≤ + <5%) | + (LOQ ≤ + <5%) | ++ (5% ≤ ++ <25%) | + (LOQ ≤ + <5%) | + (LOQ ≤ + <5%) | + (LOQ ≤ + <5%) | ++ (5% ≤ ++ <25%) | ++ (5% ≤ ++ <25%) | ++ (5% ≤ ++ <25%) | + (LOQ ≤ + <5%)
2 | Fc1ccc2c(c1)[C@H](F)CO[C@H]2[C@@H]1CCCN1 [Compound I-137, (S)-2-((1R,4S)-4,6-difluoroisochroman-1-yl)pyrrolidine] | + (LOQ ≤ + <5%) | ++ (5% ≤ ++ <25%) | ++ (5% ≤ ++ <25%) | ++ (5% ≤ ++ <25%) | ++ (5% ≤ ++ <25%) | + (LOQ ≤ + <5%) | ++ (5% ≤ ++ <25%) | ++++ (50% ≤ ++++) | ++ (5% ≤ ++ <25%) | ++ (5% ≤ ++ <25%)
3 | c1ccc2c(c1)CCCO[C@H]2[C@H]1CCCN1 [Compound I-100, (R)-2-((R)-1,3,4,5-tetrahydrobenzo[c]oxepin-1-yl)pyrrolidine] | + (LOQ ≤ + <5%) | ++ (5% ≤ ++ <25%) | ++ (5% ≤ ++ <25%) | +++ (25% ≤ +++ <50%) | ++ (5% ≤ ++ <25%) | + (LOQ ≤ + <5%) | ++ (5% ≤ ++ <25%) | +++ (25% ≤ +++ <50%) | ++ (5% ≤ ++ <25%) | + (LOQ ≤ + <5%)
4 | C[C@@]1([C@@H]2CCCN2)OCc2cc(F)ccc21 [Compound I-122, (S)-2-((R)-5-fluoro-1-methyl-1,3-dihydroisobenzofuran-1-yl)pyrrolidine] | + (LOQ ≤ + <5%) | + (LOQ ≤ + <5%) | ++ (5% ≤ ++ <25%) | + (LOQ ≤ + <5%) | ++ (5% ≤ ++ <25%) | + (LOQ ≤ + <5%) | + (LOQ ≤ + <5%) | + (LOQ ≤ + <5%) | + (LOQ ≤ + <5%) | + (LOQ ≤ + <5%)
5 | c1c2c(cc3c1OCO3)[C@H]([C@@H]1CCCN1)OCC2 [Compound I-54, (S)-2-((R)-7,8-dihydro-5H-[1,3]dioxolo[4,5-g]isochromen-5-yl)pyrrolidine] | + (LOQ ≤ + <5%) | ++ (5% ≤ ++ <25%) | +++ (25% ≤ +++ <50%) | ++ (5% ≤ ++ <25%) | +++ (25% ≤ +++ <50%) | + (LOQ ≤ + <5%) | ++ (5% ≤ ++ <25%) | ++ (5% ≤ ++ <25%) | + (LOQ ≤ + <5%) | + (LOQ ≤ + <5%)
6 | Fc1cccc2c1CCO[C@H]2[C@H]1CCN1 [Compound I-95, (R)-2-((R)-5-fluoroisochroman-1-yl)azetidine] | + (LOQ ≤ + <5%) | +++ (25% ≤ +++ <50%) | ++ (5% ≤ ++ <25%) | ++ (5% ≤ ++ <25%) | ++ (5% ≤ ++ <25%) | + (LOQ ≤ + <5%) | + (LOQ ≤ + <5%) | ++ (5% ≤ ++ <25%) | + (LOQ ≤ + <5%) | + (LOQ ≤ + <5%)
7 | c1cc2c(c3c1CCO[C@@H]3[C@@H]1CCN1)OCO2 [Compound I-143, (S)-2-((S)-7,9-dihydro-6H-[1,3]dioxolo[4,5-h]isochromen-9-yl)azetidine] | + (LOQ ≤ + <5%) | ++ (5% ≤ ++ <25%) | ++ (5% ≤ ++ <25%) | + (LOQ ≤ + <5%) | ++ (5% ≤ ++ <25%) | + (LOQ ≤ + <5%) | + (LOQ ≤ + <5%) | ++ (5% ≤ ++ <25%) | + (LOQ ≤ + <5%) | +++ (25% ≤ +++ <50%)
8 | c1c2c(cc3c1OCO3)[C@@H]([C@@H]1CCCN1)OCC2 [Compound I-53, (S)-2-((S)-7,8-dihydro-5H-[1,3]dioxolo[4,5-g]isochromen-5-yl)pyrrolidine] | + (LOQ ≤ + <5%) | + (LOQ ≤ + <5%) | + (LOQ ≤ + <5%) | + (LOQ ≤ + <5%) | + (LOQ ≤ + <5%) | + (LOQ ≤ + <5%) | + (LOQ ≤ + <5%) | + (LOQ ≤ + <5%) | + (LOQ ≤ + <5%) | + (LOQ ≤ + <5%)
9 | Fc1ccc2c(c1)CCO[C@H]2[C@@H]1COCCN1 [Compound I-78, (S)-3-((R)-6-fluoroisochroman-1-yl)morpholine] | + (LOQ ≤ + <5%) | ++ (5% ≤ ++ <25%) | +++ (25% ≤ +++ <50%) | ++ (5% ≤ ++ <25%) | ++ (5% ≤ ++ <25%) | + (LOQ ≤ + <5%) | + (LOQ ≤ + <5%) | ++ (5% ≤ ++ <25%) | + (LOQ ≤ + <5%) | + (LOQ ≤ + <5%)
10 | c1ccc2c(c1)CCCO[C@@H]2[C@H]1CCCN1 [Compound I-99, (R)-2-((S)-1,3,4,5-tetrahydrobenzo[c]oxepin-1-yl)pyrrolidine] | + (LOQ ≤ + <5%) | ++ (5% ≤ ++ <25%) | ++ (5% ≤ ++ <25%) | ++ (5% ≤ ++ <25%) | +++ (25% ≤ +++ <50%) | + (LOQ ≤ + <5%) | + (LOQ ≤ + <5%) | ++ (5% ≤ ++ <25%) | ++ (5% ≤ ++ <25%) | + (LOQ ≤ + <5%)

same assay, conditions: i.p. 15 min before behavioral test, most efficacious dose(s) of 3 doses

Row | SMILES | XG: anxiogenic (probability that behavioral signature matches class)
11 | Fc1cccc2c1[C@@H]([C@@H]1CCCN1)OCC2 [Compound I-2, (S)-2-((S)-8-fluoroisochroman-1-yl)pyrrolidine] | + (LOQ ≤ + <5%)
12 | Fc1ccc2c(c1)[C@H](F)CO[C@H]2[C@@H]1CCCN1 [Compound I-137, (S)-2-((1R,4S)-4,6-difluoroisochroman-1-yl)pyrrolidine] | + (LOQ ≤ + <5%)
13 | c1ccc2c(c1)CCCO[C@H]2[C@H]1CCCN1 [Compound I-100, (R)-2-((R)-1,3,4,5-tetrahydrobenzo[c]oxepin-1-yl)pyrrolidine] | + (LOQ ≤ + <5%)
14 | C[C@@]1([C@@H]2CCCN2)OCc2cc(F)ccc21 [Compound I-122, (S)-2-((R)-5-fluoro-1-methyl-1,3-dihydroisobenzofuran-1-yl)pyrrolidine] | + (LOQ ≤ + <5%)
15 | c1c2c(cc3c1OCO3)[C@H]([C@@H]1CCCN1)OCC2 [Compound I-54, (S)-2-((R)-7,8-dihydro-5H-[1,3]dioxolo[4,5-g]isochromen-5-yl)pyrrolidine] | + (LOQ ≤ + <5%)
16 | Fc1cccc2c1CCO[C@H]2[C@H]1CCN1 [Compound I-95, (R)-2-((R)-5-fluoroisochroman-1-yl)azetidine] | + (LOQ ≤ + <5%)
17 | c1cc2c(c3c1CCO[C@@H]3[C@@H]1CCN1)OCO2 [Compound I-143, (S)-2-((S)-7,9-dihydro-6H-[1,3]dioxolo[4,5-h]isochromen-9-yl)azetidine] | + (LOQ ≤ + <5%)
18 | c1c2c(cc3c1OCO3)[C@@H]([C@@H]1CCCN1)OCC2 [Compound I-53, (S)-2-((S)-7,8-dihydro-5H-[1,3]dioxolo[4,5-g]isochromen-5-yl)pyrrolidine] | + (LOQ ≤ + <5%)
19 | Fc1ccc2c(c1)CCO[C@H]2[C@@H]1COCCN1 [Compound I-78, (S)-3-((R)-6-fluoroisochroman-1-yl)morpholine] | + (LOQ ≤ + <5%)
20 | c1ccc2c(c1)CCCO[C@@H]2[C@H]1CCCN1 [Compound I-99, (R)-2-((S)-1,3,4,5-tetrahydrobenzo[c]oxepin-1-yl)pyrrolidine] | + (LOQ ≤ + <5%)
